Molecules are shown by their SMILES. Some results are limits rather than exact numbers.

The assay concerns LNCaP cells expressing ARR2PB-FireflyLuc and CMV-RenillaLuc. Briefly: LNCaP ARR2PB-FireflyLuc reporter assay, antagonist mode.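 Also: IC50 bins in nM.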 In kind it is cell-based. Particulars: Homo sapiens, LNCaP, 48 h, +0.5 nM DHT, 48 h at 37° C., read-out: LNCap Antagonist Archive: IC50. Here is the method: LNCaP cells expressing ARR2PB-FireflyLuc and CMV-RenillaLuc were treated with indicated concentrations of test compounds, enzalutamide (negative control), or DHT (positive control)+/−0.5 nM DHT for 48 h at 37° C. Fluorescent signals were read with the ImageXpress Micro Confocal System. Remaining activity (antagonist mode) was calculated as % Remaining Activity=100×[(ReadSample−LCave)/(HCave−LCave)] where HC is cells treated with 0.5 nM DHT only and LC is cells treated with 10 uM enzalutamide+0.5 nM DHT. Activation (agonist mode) was calculated as % Activation=100×[(ReadSample−LCave)/(HCave−LCave)] where HO is cells treated with 1 uM DHT and LC is cells treated with DMSO. Dose response curves and IC50 values were calculated using non-linear regression analysis in XLfit.
The designation “A” indicates an IC50 value of >10 μM, “B” indicates an IC50 value between 1 μM and 10 μM; “C” indicates an IC50 value between 100 nM and 1 μM; and “D” indicates an IC50 value of less than 100 nM.
As a reminder, the IC50 is the point on the concentration scale where inhibition reaches its midpoint. For the compound `CN(C(=O)c1cc2cccc(Cl)c2[nH]1)C1CCOCC1` [Example 72, 7-chloro-N-methyl-N-(oxan-4-yl)-1H-indole-2-carboxamide], the IC50 is above 10 µM.
Take `CN(C(=O)c1cc2ccnc(C#N)c2n1C)C12CC(F)(C1)C2` [Example 133, 7-cyano-N-{3-fluorobicyclo[1.1.1]pentan-1-yl}-N,1-dimethylpyrrolo[2,3-c]pyridine-2-carboxamide]: the IC50 lay within 0.1 to 1 µM.
Turning to `CCN(C(=O)c1cc2ccnc(Cl)c2[nH]1)C12CC(F)(C1)C2` [Example 117, 7-chloro-N-ethyl-N-{3-fluorobicyclo[1.1.1]pentan-1-yl}-1H-pyrrolo[2,3-c]pyridine-2-carboxamide], the IC50 is 0.1 to 1 µM.
As for `Cn1c(C(=O)NC2(C)CCC2)cc2ccnc(Cl)c21` [Example 147, 7-chloro-1-methyl-N-(1-methylcyclobutyl)pyrrolo[2,3-c]pyridine-2-carboxamide], the IC50 was 0.1 to 1 µM.
Turning to `CN(C(=O)c1cc2cccc(Cl)c2[nH]1)c1ccccn1` [Example 28, 7-chloro-N-methyl-N-(pyridin-2-yl)-1H-indole-2-carboxamide], the IC50 was in the range of 1 to 10 µM.
For `CN(C(=O)c1cc2ccc(F)cc2[nH]1)C12CC(C1)C2` [Example 93, N-[bicyclo[1.1.1]pentan-1-yl]-6-fluoro-N-methyl-1H-indole-2-carboxamide], the IC50 lay within 0.1 to 1 µM.
On to `O=C(NC12CC(F)(C1)C2)c1cc2ccnc(Cl)c2n1CC1CC1` [Example 113, 7-chloro-1-(cyclopropylmethyl)-N-{3-fluorobicyclo[1.1.1]pentan-1-yl}pyrrolo[2,3-c]pyridine-2-carboxamide], for which the IC50 lay in the range of 0.1 to 1 µM.
For `Cc1nccc2cc(C(=O)NC34CC(F)(C3)C4)n(C)c12` [Example 130, N-{3-fluorobicyclo[1.1.1]pentan-1-yl}-1,7-dimethylpyrrolo[2,3-c]pyridine-2-carboxamide], the IC50 is 1 to 10 µM.
For `COCCN(C(=O)c1cc2cccc(Cl)c2[nH]1)c1ccc(C#N)cc1F` [Example 79, 7-chloro-N-(4-cyano-2-fluorophenyl)-N-(2-methoxyethyl)-1H-indole-2-carboxamide] the value was 1 to 10 µM; for `Cn1c(C(=O)NC23CC(F)(C2)C3)cc2cccc(Cl)c21` [Example 114, 7-chloro-N-{3-fluorobicyclo[1.1.1]pentan-1-yl}-1-methylindole-2-carboxamide], below 0.1 µM; for `Cn1c(C(=O)NC23CC(C2)C3)cc2ccc(F)cc21` [Example 157, N-(bicyclo[1.1.1]pentan-1-yl)-6-fluoro-1-methyl-1H-indole-2-carboxamide], 1 to 10 µM.
Take `CN(C(=O)c1cc2cccc(C(F)(F)F)c2o1)c1ccc(F)cc1` [Example 36, N-(4-fluorophenyl)-N-methyl-7-(trifluoromethyl)benzofuran-2-carboxamide]: the IC50 lay within 1 to 10 µM.
Turning to `CN(C(=O)c1cc2cccc(Cl)c2[nH]1)c1ccc(C#N)cc1` [Example 33, 7-chloro-N-(4-cyanophenyl)-N-methyl-1H-indole-2-carboxamide], the IC50 lay in the range of 1 to 10 µM.
As for `Cn1c(C(=O)NC23CC(F)(C2)C3)cc2ccnc(OC3CC3)c21` [Example 119, 7-cyclopropoxy-N-{3-fluorobicyclo[1.1.1]pentan-1-yl}-1-methylpyrrolo[2,3-c]pyridine-2-carboxamide], the concentration for half-maximal inhibition (IC50) was above 10 µM.
As for `Cn1c(C(=O)NC23CC(F)(C2)C3)cc2ccnc(C3CC3)c21` [Example 120, 7-cyclopropyl-N-{3-fluorobicyclo[1.1.1]pentan-1-yl}-1-methylpyrrolo[2,3-c]pyridine-2-carboxamide], the IC50 lay within 1 to 10 µM.
For `O=C(NC12CC(F)(C1)C2)c1cc2ccnc(OC3CC3)c2[nH]1` [Example 122, 7-cyclopropoxy-N-{3-fluorobicyclo[1.1.1]pentan-1-yl}-1H-pyrrolo[2,3-c]pyridine-2-carboxamide], the IC50 was above 10 µM.
For the compound `CN(C(=O)c1cc2cccc(Cl)c2[nH]1)C1CCCCC1` [Example 81, 7-chloro-N-cyclohexyl-N-methyl-1H-indole-2-carboxamide], the half-inhibitory concentration (IC50) lay in the range of 1 to 10 µM.
On to `Cc1c(C(=O)N(C)C23CC(C2)C3)[nH]c2c(Cl)cccc12` [Example 104, N-[bicyclo[1.1.1]pentan-1-yl]-7-chloro-N,3-dimethyl-1H-indole-2-carboxamide], for which the IC50 is above 10 µM.
On to `CC(C)N(Cc1cccnc1)C(=O)c1cc2ccc(F)cc2[nH]1` [Example 9, 6-fluoro-N-isopropyl-N-(pyridin-3-ylmethyl)-1H-indole-2-carboxamide], for which the IC50 lay in the range of 1 to 10 µM.
As to `CN(C(=O)c1cc2ccc(F)cc2[nH]1)c1ccccc1` [Example 59, 6-fluoro-N-methyl-N-phenyl-1H-indole-2-carboxamide], the IC50 fell in the range of 0.1 to 1 µM.
The value for `C[C@@H]1OCC[C@@H]1NC(=O)c1cc2cccc(Cl)c2[nH]1` [Example 62, 7-chloro-N-[(2S,3S)-2-methyloxolan-3-yl]-1H-indole-2-carboxamide] was 1 to 10 µM.
As to `Cn1ccc(-c2c(C(=O)NC34CC(C3)C4)[nH]c3c(Cl)cccc23)n1` [Example 107, N-[bicyclo[1.1.1]pentan-1-yl]-7-chloro-3-(1-methylpyrazol-3-yl)-1H-indole-2-carboxamide], the IC50 is above 10 µM.
As to `COCCN(C(=O)c1cc2cccc(Cl)c2[nH]1)c1ccc(C#N)c(C)c1` [Example 76, 7-chloro-N-(4-cyano-3-methylphenyl)-N-(2-methoxyethyl)-1H-indole-2-carboxamide], the IC50 was in the range of 1 to 10 µM.
Consider `CN(C(=O)c1cc2cccc(Cl)c2o1)c1ccccn1` [Example 37, 7-chloro-N-methyl-N-(pyridin-2-yl)-1-benzofuran-2-carboxamide], for which the IC50 was above 10 µM.
The value for `CC(C)N(Cc1cnco1)C(=O)c1cc2ccc(F)cc2[nH]1` [Example 6, 6-fluoro-N-isopropyl-N-(1,3-oxazol-5-ylmethyl)-1H-indole-2-carboxamide] was 1 to 10 µM; that for `COCCN(C(=O)c1cc2ccc(F)cc2[nH]1)c1ccn(C)n1` [Example 57, 6-fluoro-N-(2-methoxyethyl)-N-(1-methyl-1H-pyrazol-3-yl)-1H-indole-2-carboxamide] was above 10 µM; that for `O=C(NC12CC(F)(C1)C2)c1cc2ccnc(Cl)c2n1CCN1CCOCC1` [Example 141, 7-chloro-N-{3-fluorobicyclo[1.1.1]pentan-1-yl}-1-[2-(morpholin-4-yl)ethyl]pyrrolo[2,3-c]pyridine-2-carboxamide] was above 10 µM.
As to `CN(C(=O)c1cc2cccc(C#N)c2[nH]1)C1CCCC1` [Example 20, 7-cyano-N-cyclopentyl-N-methyl-1H-indole-2-carboxamide], the IC50 fell in the range of 1 to 10 µM.
Turning to `CN(CC1CC1)C(=O)c1cc2cccc(Cl)c2[nH]1` [Example 32, 7-chloro-N-(cyclopropylmethyl)-N-methyl-1H-indole-2-carboxamide], the IC50 is 1 to 10 µM.
Turning to `COCCN(C(=O)c1cc2cccc(Cl)c2[nH]1)C12CC(C1)C2` [Example 90, N-[bicyclo[1.1.1]pentan-1-yl]-7-chloro-N-(2-methoxyethyl)-1H-indole-2-carboxamide], the IC50 lay within 1 to 10 µM.
As to `N#Cc1ccc(N(CC2CC2)C(=O)c2cc3cccc(Cl)c3[nH]2)cc1` [Example 56, 7-chloro-N-(4-cyanophenyl)-N-(cyclopropylmethyl)-1H-indole-2-carboxamide], the IC50 lay in the range of 0.1 to 1 µM.
Take `CN(C(=O)c1cc2cccc(Cl)c2o1)c1ccc(F)cc1` [Example 35, 7-chloro-N-(4-fluorophenyl)-N-methyl-1-benzofuran-2-carboxamide]: the IC50 lay within 1 to 10 µM.
For `Cc1nccc2cc(C(=O)N(C)C34CC(F)(C3)C4)n(C)c12` [Example 132, N-{3-fluorobicyclo[1.1.1]pentan-1-yl}-N,1,7-trimethylpyrrolo[2,3-c]pyridine-2-carboxamide] the value was 1 to 10 µM; for `Cn1c(C(=O)NC2CC3(CCC3)C2)cc2ccnc(Cl)c21` [Example 150, 7-chloro-1-methyl-N-{spiro[3.3]heptan-2-yl}pyrrolo[2,3-c]pyridine-2-carboxamide], 1 to 10 µM; for `CN(C(=O)c1cc2ccc(F)cc2o1)c1ccc(F)cc1` [Example 39, 6-fluoro-N-(4-fluorophenyl)-N-methyl-1-benzofuran-2-carboxamide], 1 to 10 µM.
For `CC1OCCC1N(C)C(=O)c1cc2cccc(Cl)c2[nH]1` (stereo not shown) [Example 80, 7-chloro-N-methyl-N-(2-methyloxolan-3-yl)-1H-indole-2-carboxamide], the IC50 was in the range of 1 to 10 µM.
For `O=C(NC12CC(C1)C2)c1[nH]c2c(Cl)cccc2c1-c1ccccc1` [Example 108, N-[bicyclo[1.1.1]pentan-1-yl]-7-chloro-3-phenyl-1H-indole-2-carboxamide], the IC50 was in the range of 1 to 10 µM.
In the case of `CN(C(=O)c1cc2cccc(C#N)c2o1)c1ccc(F)cc1` [Example 34, 7-cyano-N-(4-fluorophenyl)-N-methyl-1-benzofuran-2-carboxamide], the IC50 was above 10 µM.
Take `CN(C(=O)c1cc2cccc(Cl)c2[nH]1)C1CCNCC1` [Example 43, 7-chloro-N-methyl-N-(piperidin-4-yl)-1H-indole-2-carboxamide]: the IC50 was above 10 µM.
As for `Cc1c(C(=O)NC23CC(F)(C2)C3)n(C)c2c(Cl)nccc12` [Example 129, 7-chloro-N-{3-fluorobicyclo[1.1.1]pentan-1-yl}-1,3-dimethylpyrrolo[2,3-c]pyridine-2-carboxamide], the IC50 is above 10 µM.
